Measurements taken from patent US20060269938A1, “Polynucleotides encoding insect plasma membrane ca2+ ATPase and uses thereof” (priority 2005, published 2006).
pIC50: −log10 of the molar value.

Legend:
[1] = biological target: recombinant Heliothis virescens PMCA; assay: PMCA activity assay, luciferase-luciferin luminescence measurement of remaining ATP; format: biochemical
Method: The assay for PMCA is based on the use of the luciferase-luciferin luminescence reaction to measure ATP. PMCA hydrolyzes ATP in the presence of Ca^2+and the ATP that remains is measured. Membrane vesicles from Sf9 cells expressing recombinant Heliothis virescens PMCA are provided with the assay.
The assay protocol is designed for a 384-well microtiter plate format, but other multi-well formats or other formats may also be used. The reaction is started by the addition of the PMCA enzyme. The negative control reactions contain eosin, an inhibitor of PMCA. Reaction mixtures are incubated at room temperature (22-24° C.) for 60 minutes, followed by the addition of the luciferase-luciferin mix. The plates are immediately read for luminescence.
The luciferin-luciferase readout measures the concentration of ATP in reaction mixtures. Light emission by the luciferase is proportional to the concentration of ATP when its value is less than 0.010 mM. PMCA consumes ATP in a Ca^2+-dependent hydrolysis reaction. […]
A volume of 0.005 mL of the HI solution increasing concentrations of eosin was placed in the wells of a 384-well microtiter plate, and a volume of 0.020 mL of the H2 solution was added. […] A volume of 0.035 mL of the H4 reaction mixture was then added to each well of the plate and the luminescence was measured. The decrease in relative light units (RLU) in reaction time t=60 minutes was measured. […]

PMCA = assay: pyruvate kinase/lactate dehydrogenase-coupled assay that measures ADP formation; format: biochemical, Heliothis virescens; settings: fit to simple hyperbolic equation; decrease in absorbance at 340 nm; PMCA 0.20 mg/mL; FIG. 3; read-out: K1/2 for ATP, PMCA reaction rate
Method: The PMCA reaction rate is dependent on the ATP concentration. The K1/2 for ATP was measured using a pyruvate kinase/lactate dehydrogenase-coupled assay that measures ADP formation. The final concentrations of PMCA and ATP were […]. The rates of decrease in absorbance at 340 nm were measured for each concentration of ATP. The line gives the fit to a simple hyperbolic equation with K1/2=0.013 mM and amplitude=0.022 OD/min. Vmax =50.0 nmol.min^−1.mg^−1. was obtained for PMCA activity under the conditions described.

O=C1OC2(c3ccccc31)c1cc(Br)c(O)c(Br)c1Oc1c2cc(Br)c(O)c1Br [eosin, reference compound]
pIC50 ([1]; membrane vesicles from Sf9 cells, room temperature (22-24° C.), 60 minutes, FIG. 5, read-out: IC50 of inhibition of PMCA activity (rates of ATP consumption)): 7.92

Nc1ncnc2c1ncn2[C@@H]1O[C@H](COP(=O)(O)OP(=O)(O)OP(=O)(O)O)[C@@H](O)[C@H]1O [ATP]
Km (PMCA): 13 µM

[Ca+2] [Ca^2+]
K1/2 for Ca2+, PMCA reaction rate ([1]; fit to simple hyperbolic equation, rates of decrease in RLU, ATP 0.010 mM, PMCA 0.010 mg/mL, FIG. 4): 1.5 µM
